Assay results published in patent US9951046B2, “TRPA1 modulators” (Algomedix, Inc., priority 2014, dated 2018).

target: T1, human TRPA1 (Homo sapiens, UniProt O75762); experiment: Cell-based functional intracellular calcium ([Ca2+]i) assay, Fluo-4/Fluo-8, FlexStation, challenge with reference TRPA1 agonist (FFA, AITC or 4-HNE); details: not given
T1 construct: expressed in transfected cells
Protocol: A stable HEK293 cell line that expresses human TRPA1 in an inducible manner was employed in this assay. […] The expression of TRPA1 was induced by including 1 μg/ml doxycycline in the culture medium. For the induced cells, ruthenium red (5 μM) was also added to minimize the constitutive TRPA1 channel activity and cells were used 14-18 hrs after induction. To measure [Ca^2+]i changes, cells were seeded in wells of 96-well plates at ˜100,000 cells/well and grown for 14-18 hrs to reach confluency. To prevent cell loss from subsequent washing, the wells were treated with 20 μg/ml polyornithine (MW>30,000, Sigma, St Louis, Mo.) for >15 min and rinsed once with Hank's balanced salt solution without Mg^2+ and Ca^2+. […] In some experiments, Fluo-8-AM was used instead of Fluo-4-AM as the calcium-sensitive fluorescent probe. Probenecid (2 mM) was included in all solutions to prevent the leakage of Fluo-4 or Fluo-8 from the cells. At the end of the incubation, cells were washed three times with ECS and placed in 80 μL of the same solution. Fluorescence changes were measured using a fluid handling integrated fluorescence plate reader, FlexStation (Molecular Devices, Sunnyvale, Calif.). Stock solutions of test compounds were initially solubilized in 100% DMSO and then serially diluted to achieve the desired final concentration. […] Drugs were diluted into ECS at 2× or 3× the desired final concentrations and delivered to the sample plate by an integrated robotic 8-channel pipettor at preprogrammed time points. […] Experiments were performed at 20-25° C. For certain experiments, 0.1% BSA was included with the cells and test compounds.
The kinetic data obtained at each test concentration of drug represents a series of fluorescent intensities as a function of time.
Using a sequential addition protocol, test compounds were initially applied to the cells loaded with Fluo-4 or Fluo-8 and fluorescence changes in each well monitored for 2.5 min. The plate was read again in a kinetic mode after a 15-30 min incubation with the test compounds after obtaining baseline values (about 30 s) and subsequent addition of challenge with a reference TRPA1 agonist. Reference TRPA1 agonists in testing each compound included at least one of flufenamic acid (FFA), allyl isothiocyanate (AITC) and 4-hydroxynonenal (4-HNE).
Antagonist activity can be expressed in terms of IC50 with respect to TRPA1 and agonist activity can be expressed in terms of EC50 with respect to TRPA1.

T1 sequence (O75762 whole entry): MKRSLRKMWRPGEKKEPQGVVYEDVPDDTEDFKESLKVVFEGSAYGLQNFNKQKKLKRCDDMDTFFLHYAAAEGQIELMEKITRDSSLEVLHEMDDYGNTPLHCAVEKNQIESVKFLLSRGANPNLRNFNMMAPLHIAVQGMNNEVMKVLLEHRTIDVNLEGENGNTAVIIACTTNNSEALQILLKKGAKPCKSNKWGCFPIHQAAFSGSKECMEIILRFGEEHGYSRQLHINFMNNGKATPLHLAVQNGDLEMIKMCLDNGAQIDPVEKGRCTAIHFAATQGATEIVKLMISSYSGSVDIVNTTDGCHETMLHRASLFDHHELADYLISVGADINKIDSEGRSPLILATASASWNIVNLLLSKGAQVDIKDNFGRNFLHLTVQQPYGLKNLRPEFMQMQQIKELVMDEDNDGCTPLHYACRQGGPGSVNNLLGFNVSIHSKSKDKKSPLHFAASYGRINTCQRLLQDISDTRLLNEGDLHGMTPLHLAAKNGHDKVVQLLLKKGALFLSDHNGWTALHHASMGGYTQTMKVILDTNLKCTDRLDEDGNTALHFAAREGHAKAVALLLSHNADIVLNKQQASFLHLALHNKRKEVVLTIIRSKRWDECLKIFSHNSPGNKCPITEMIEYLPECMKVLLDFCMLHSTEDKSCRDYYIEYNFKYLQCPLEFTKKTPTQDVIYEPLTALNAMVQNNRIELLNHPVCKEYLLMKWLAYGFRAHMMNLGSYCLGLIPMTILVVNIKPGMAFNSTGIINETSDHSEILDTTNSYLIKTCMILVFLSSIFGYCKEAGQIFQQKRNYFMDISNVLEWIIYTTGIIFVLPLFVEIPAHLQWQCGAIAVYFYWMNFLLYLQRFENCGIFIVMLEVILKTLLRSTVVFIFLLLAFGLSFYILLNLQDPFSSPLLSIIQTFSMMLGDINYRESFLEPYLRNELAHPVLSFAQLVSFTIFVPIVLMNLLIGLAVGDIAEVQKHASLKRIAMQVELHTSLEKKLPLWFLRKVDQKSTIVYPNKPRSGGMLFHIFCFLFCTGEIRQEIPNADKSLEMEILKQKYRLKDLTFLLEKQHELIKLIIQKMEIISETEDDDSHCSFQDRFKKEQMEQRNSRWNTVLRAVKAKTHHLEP

Row | SMILES | IC50 [µM]
1 | CC1COC2(CCN(C(=O)c3cc(-c4ccncc4)n(-c4ccc(F)c(F)c4)n3)CC2)O1 (centres unmarked) [Compound 93] | > 25
2 | CCCC1COC2(CCN(C(=O)c3cc(-c4ccncc4)n(-c4ccc(F)c(F)c4)n3)CC2)O1 (centres unmarked) [Compound 96] | > 25
3 | O=C(c1cc(-c2ccncc2)n(-c2ccc(C(F)(F)F)c(F)c2)n1)N1CCC(N2C(=O)Cc3ccccc32)CC1 [Compound 98] | 5 to 25
4 | CC1COC2(CCN(C(=O)c3cc(-c4ccncc4)n(-c4ccc(C(F)(F)F)c(F)c4)n3)CC2)O1 (centres unmarked) [Compound 114] | > 25
5 | CCCC1COC2(CCN(C(=O)c3cc(-c4ccncc4)n(-c4ccc(C(F)(F)F)c(F)c4)n3)CC2)O1 (centres unmarked) [Compound 117] | > 25
6 | O=C(c1cc(-c2ccncc2)n(-c2ccc(C(F)(F)F)nc2)n1)N1CCC(N2C(=O)Cc3ccccc32)CC1 [Compound 119] | > 25
7 | CC1COC2(CCN(C(=O)c3cc(-c4ccncc4)n(-c4cnccn4)n3)CC2)O1 (centres unmarked) [Compound 135] | > 25
8 | CCCC1COC2(CCN(C(=O)c3cc(-c4ccncc4)n(-c4cnccn4)n3)CC2)O1 (centres unmarked) [Compound 138] | > 25
9 | O=C(c1cc(-c2ccncc2)n(-c2cc(F)c(F)c(F)c2)n1)N1CCC2(CC1)OCCO2 [Compound 142] | > 25

same assay, conditions: HEK293 cells expressing human TRPA1; IC50 class after addition of reference TRPA1 agonist (FFA, AITC or 4-HNE); read-out: human TRPA1-HEK Activity

Row | SMILES | IC50 [µM]
10 | Cn1c(=O)c(=O)n(C)c2cc(NC(=O)c3cc(-c4ccncc4)n(-c4ccc(F)c(F)c4)n3)ccc21 [Compound 91] | > 25
11 | O=C(Nc1ccc2c(c1)COC2=O)c1cc(-c2ccncc2)n(-c2ccc(F)c(F)c2)n1 [Compound 92] | > 25
12 | O=C(c1cc(-c2ccncc2)n(-c2ccc(F)c(F)c2)n1)N1CCN2C(=O)OC[C@@H]2C1 [Compound 94] | > 25
13 | O=C(c1cc(-c2ccncc2)n(-c2ccc(F)c(F)c2)n1)N1CCC2(CC1)NCN(c1ccccc1)C2=O [Compound 95] | > 25
14 | CN1C(=O)NC2(CCN(C(=O)c3cc(-c4ccncc4)n(-c4ccc(F)c(F)c4)n3)CC2)C1=O [Compound 97] | > 25
15 | O=C(c1cc(-c2ccncc2)n(-c2ccc(C(F)(F)F)c(F)c2)n1)N1CCC2(CC1)C(=O)NCN2c1ccc(F)cc1 [Compound 99] | 0.001 to 5
16 | O=C(c1cc(-c2ccncc2)n(-c2ccc(C(F)(F)F)c(F)c2)n1)N1CCC2(CC1)OCc1ccccc12 [Compound 101] | > 25
17 | O=C1OC2(CCN(C(=O)c3cc(-c4ccncc4)n(-c4ccc(C(F)(F)F)c(F)c4)n3)CC2)c2ccccc21 [Compound 102] | > 25
18 | O=C1OC2(CCN(C(=O)c3cc(-c4ccncc4)n(-c4ccc(C(F)(F)F)c(F)c4)n3)CC2)c2ccc(Cl)cc21 [Compound 103] | > 25
19 | O=C(c1cc(-c2ccncc2)n(-c2ccc(C(F)(F)F)c(F)c2)n1)N1CC(=O)N2CCc3ccccc3C2C1 (centres unmarked) [Compound 104] | > 25
20 | Cn1c(=O)n(C2CCN(C(=O)c3cc(-c4ccncc4)n(-c4ccc(C(F)(F)F)c(F)c4)n3)CC2)c2ccccc21 [Compound 105] | > 25
21 | O=C(c1cc(-c2ccncc2)n(-c2ccc(C(F)(F)F)c(F)c2)n1)N1CCC(N2C(=O)OC[C@H]2c2ccccc2)CC1 [Compound 106] | > 25
22 | O=C(c1cc(-c2ccncc2)n(-c2ccc(C(F)(F)F)c(F)c2)n1)N1CCC2(CC1)SCCS2 [Compound 107] | > 25
23 | O=C(c1cc(-c2ccncc2)n(-c2ccc(C(F)(F)F)c(F)c2)n1)N1CCC(c2nc3ccccc3o2)CC1 [Compound 108] | > 25
24 | O=C(Nc1ccc2c(c1)OC(F)(F)O2)c1cc(-c2ccncc2)n(-c2ccc(C(F)(F)F)c(F)c2)n1 [Compound 109] | > 25
25 | CN1C(=O)COc2cc(NC(=O)c3cc(-c4ccncc4)n(-c4ccc(C(F)(F)F)c(F)c4)n3)ccc21 [Compound 110] | > 25
26 | O=C1CSC2(CCN(C(=O)c3cc(-c4ccncc4)n(-c4ccc(C(F)(F)F)c(F)c4)n3)CC2)N1 [Compound 111] | > 25
27 | Cn1c(=O)c(=O)n(C)c2cc(NC(=O)c3cc(-c4ccncc4)n(-c4ccc(C(F)(F)F)c(F)c4)n3)ccc21 [Compound 112] | > 25
28 | O=C(Nc1ccc2c(c1)COC2=O)c1cc(-c2ccncc2)n(-c2ccc(C(F)(F)F)c(F)c2)n1 [Compound 113] | > 25
29 | O=C(c1cc(-c2ccncc2)n(-c2ccc(C(F)(F)F)c(F)c2)n1)N1CCN2C(=O)OC[C@@H]2C1 [Compound 115] | > 25
30 | CN1C(=O)NC2(CCN(C(=O)c3cc(-c4ccncc4)n(-c4ccc(C(F)(F)F)c(F)c4)n3)CC2)C1=O [Compound 118] | > 25

Row | SMILES | IC50 [µM]
31 | O=C(c1cc(-c2ccncc2)n(-c2ccc(C(F)(F)F)nc2)n1)N1CCC2(CC1)C(=O)NCN2c1ccc(F)cc1 [Compound 120] | 5 to 25
32 | O=C(c1cc(-c2ccncc2)n(-c2ccc(C(F)(F)F)nc2)n1)N1CCC2(CC1)C(=O)NCN2c1ccc(Cl)cc1 [Compound 121] | > 25
33 | O=C(c1cc(-c2ccncc2)n(-c2ccc(C(F)(F)F)nc2)n1)N1CCC2(CC1)OCc1ccccc12 [Compound 122] | > 25
34 | O=C1OC2(CCN(C(=O)c3cc(-c4ccncc4)n(-c4ccc(C(F)(F)F)nc4)n3)CC2)c2ccccc21 [Compound 123] | > 25
35 | O=C1OC2(CCN(C(=O)c3cc(-c4ccncc4)n(-c4ccc(C(F)(F)F)nc4)n3)CC2)c2ccc(Cl)cc21 [Compound 124] | > 25
36 | O=C(c1cc(-c2ccncc2)n(-c2ccc(C(F)(F)F)nc2)n1)N1CC(=O)N2CCc3ccccc3C2C1 (centres unmarked) [Compound 125] | > 25
37 | Cn1c(=O)n(C2CCN(C(=O)c3cc(-c4ccncc4)n(-c4ccc(C(F)(F)F)nc4)n3)CC2)c2ccccc21 [Compound 126] | > 25
38 | O=C(c1cc(-c2ccncc2)n(-c2ccc(C(F)(F)F)nc2)n1)N1CCC(N2C(=O)OC[C@H]2c2ccccc2)CC1 [Compound 127] | > 25
39 | O=C(c1cc(-c2ccncc2)n(-c2ccc(C(F)(F)F)nc2)n1)N1CCC2(CC1)SCCS2 [Compound 128] | > 25
40 | O=C(c1cc(-c2ccncc2)n(-c2cnccn2)n1)N1CCC(c2nc3ccccc3o2)CC1 [Compound 129] | > 25
41 | O=C(Nc1ccc2c(c1)OC(F)(F)O2)c1cc(-c2ccncc2)n(-c2cnccn2)n1 [Compound 130] | 5 to 25
42 | CN1C(=O)COc2cc(NC(=O)c3cc(-c4ccncc4)n(-c4cnccn4)n3)ccc21 [Compound 131] | > 25
43 | Cn1c(=O)c(=O)n(C)c2cc(NC(=O)c3cc(-c4ccncc4)n(-c4cnccn4)n3)ccc21 [Compound 133] | > 25
44 | O=C(Nc1ccc2c(c1)COC2=O)c1cc(-c2ccncc2)n(-c2cnccn2)n1 [Compound 134] | > 25
45 | O=C(c1cc(-c2ccncc2)n(-c2cnccn2)n1)N1CCN2C(=O)OC[C@@H]2C1 [Compound 136] | 5 to 25
46 | O=C(c1cc(-c2ccncc2)n(-c2cnccn2)n1)N1CCC2(CC1)NCN(c1ccccc1)C2=O [Compound 137] | > 25
47 | CN1C(=O)NC2(CCN(C(=O)c3cc(-c4ccncc4)n(-c4cnccn4)n3)CC2)C1=O [Compound 139] | > 25
48 | O=C(c1cc(-c2ccncc2)n(-c2cc(F)c(F)c(F)c2)n1)N1CCC2(CC1)C(=O)NCN2c1ccccc1 [Compound 140] | 5 to 25
49 | O=C(c1cc(-c2ccncc2)n(-c2cc(F)c(F)c(F)c2)n1)N1CCC(n2c(=O)[nH]c3ccccc32)CC1 [Compound 141] | 5 to 25
50 | O=C(c1cc(-c2ccncc2)n(-c2ccc(C(F)(F)F)cc2)n1)N1CCC2(CC1)C(=O)NCN2c1ccccc1 [Compound 143] | 5 to 25
